The values below come from PMC8909036 (Cells, 2022).

Structures are written as SMILES.

For one test, the target named is T1, NbPYL1b (Nicotiana benthamiana, UniProt Z9Z2X8O5T5).
T1 construct: full ORF amplified from Nb genomic DNA (CDS 678 nt, 225 residues by count) in pETM11, His-tagged, E. coli BL21(DE3), Ni-NTA; dimer in gel filtration (apo); assayed with N-terminally truncated HAB1 (ΔN-HAB1); with Protein phosphatase 2C 16
T1 sequence (Z9Z2X8O5T5 1-225): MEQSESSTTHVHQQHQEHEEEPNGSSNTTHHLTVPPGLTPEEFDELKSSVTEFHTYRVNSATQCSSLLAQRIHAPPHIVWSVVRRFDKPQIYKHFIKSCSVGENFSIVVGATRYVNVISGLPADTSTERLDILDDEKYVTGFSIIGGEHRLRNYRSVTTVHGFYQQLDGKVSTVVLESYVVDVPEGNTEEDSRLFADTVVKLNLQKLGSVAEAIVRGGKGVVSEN
T1 sequence (Q9CAJ0 172-511 partner limits assumed): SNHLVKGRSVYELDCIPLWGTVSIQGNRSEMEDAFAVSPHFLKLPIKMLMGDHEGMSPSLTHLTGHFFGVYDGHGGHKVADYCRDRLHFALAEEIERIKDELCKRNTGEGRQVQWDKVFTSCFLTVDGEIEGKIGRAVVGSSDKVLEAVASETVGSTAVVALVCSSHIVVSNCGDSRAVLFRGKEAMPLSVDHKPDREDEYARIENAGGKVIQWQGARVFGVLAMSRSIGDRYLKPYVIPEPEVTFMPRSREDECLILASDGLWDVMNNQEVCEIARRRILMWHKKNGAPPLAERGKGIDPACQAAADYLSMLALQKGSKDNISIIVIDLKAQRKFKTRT
In words: ligand-dependent inhibition of PP2C HAB1 by receptor, pNPP, […] nm. The following applies: 0.5 μM ΔN-HAB1, 1 or 2 μM NbPYL1b, 25 mM pNPP, 2 mM MnCl2, 25 mM Tris HCl pH 7.5; agonist, IC50 read on HAB1 activity. In kind it is biochemical.

Another test concerns the target T2, ΔN-HAB1 (Arabidopsis thaliana, UniProt Q9CAJ0).
T2 sequence (Q9CAJ0 172-511 limits assumed): T1 sequence (Q9CAJ0 172-511 partner limits assumed)
In words: phosphatase turnover, […] nm, […] min. In kind it is biochemical. The note with it: 25 mM pNPP, 2 mM MnCl2, 25 mM Tris HCl pH 7.5.

In general, IC50 refers to the concentration at which inhibition is half-maximal. `Cc1ccc(CS(=O)(=O)Nc2ccc(C#N)c(C3CC3)c2)cc1` [CB] came in with an IC50 at NbPYL1b of 126 nM.
In the case of `O=[N+]([O-])c1ccc(OP(=O)(O)O)cc1` [pNPP], the “phosphatase turnover, 405 nm, 30 min” value on ΔN-HAB1 is listed as “Phosphatase activity was measured using p-nitrophenyl phosphate (pNPP) as a substrate”.
